From US5478807A, “Use of relaxin in the treatment of bradycardia” (Genentech, Inc., priority 1992, dated 1995)
Where two headings read alike, the source gives them in different places.

Experiments:
[1] = system: relaxin receptors in the rat heart; experiment: Effect of steroid hormones on relaxin receptors in the rat heart; assay type: in vivo; details: steroid treatment 10 μg s.c.; sacrificed 7 days later
Protocol: For hormonal control experiments, 10-11-week-old female rats were ovariectomized for two weeks and then injected s.c. with 10 μg estradiol cyclopentyl propionate in a […] vehicle or with vehicle alone. Likewise, 10-11-week-old male rats were castrated for 2 weeks and were injected with either 10 μg estradiol cyclopentyl propionate, 10 μg testosterone, or vehicle alone. The rats were sacrificed 7 days later by asphyxiation with CO2. The relevant tissues were removed rapidly and frozen in powdered dry ice immediately.
The frozen tissues were sectioned to 16 μm thickness using a Reichert-Jung Model 2800 Frigocut cryostat (Cambridge Instruments). Tissue sections were fixed onto gelatin/chromium potassium sulfate treated microscope slides by warming, and immediately refrozen and stored at -80° C. overnight or longer.
For binding of ^32 P-relaxin to the tissue sections, frozen slides were prewashed with binding buffer (Hank's balanced salt solution supplemented with 20 mMHEPES, pH 7.2, 1 mg/ml BSA, 0.1 mM PMSF, and 1 μg/ml leupeptin) at 4° C. for 1.5-2 hours. The tissue sections were then covered with 600-700 μl of 100 pM ^32 P-relaxin with or without excess unlabeled relaxin and other competing agents as specificity control, and incubated at 4° C. for one hour. The slides were washed 3 times for 15-30 minutes each, with binding buffer. […]

[2] = cited from earlier work
[3] = obliterative peripheral arterial disease; cited from earlier work
rat mesocaecum venules = details: local application; cited from earlier work
rat isolated heart = experiment: Chronotropy and inotropy in Langendorff rat isolated heart
Protocol: Male Sprague-Dawley rats weighing 300-350 g (Charles River, Portage, Ind., USA) were anesthetized with 60 mg/kg pentobarbital sodium (Fort Dodge Laboratories, Inc., Fort Dodge, Iowa, USA) intraperitoneally. Following thoracotomy, the hearts were removed and placed into 4° C. […] Any associated lung and thymic tissue were trimmed off and the ascending aorta cannulated. The heart was then perfused at 10 ml/min with Krebs-Henseleit solution at 37° C. The perfusion pressure was constantly monitored. A small incision was made in the left atrium and a water-filled balloon (Hugo Sachs Electronik, March-Hugstetten, Germany) connected to a pressure transducer (Gould Electronics, Valley View, Ohio, USA) was placed into the left ventricle for the measurement of left ventricular developed pressure (LVDP). From this pressure, recording heart rate was electronically derived on a Grass polygraph (Quincy, Mass., USA).
In six experiments, after a 15-20 minutes stabilization period, the atria were removed. The heart rate was then allowed to stabilize at its new rate before the administration of relaxin. In three experiments, the atria were left intact.
Relaxin was administered as 50 μl bolus injections into the perfusion fluid immediately prior to entering the heart. Cumulative dose-response curves were constructed using human recombinant H2 relaxin (Genentech, Inc. South San Francisco, Calif., USA). […] Serial dilutions of both drugs were made using 0.9% (w/v) saline solution.
Statistical significance was determined by a two-tailed Student's unpaired t-test and P<0.005 was taken as significant.

## estradiol cyclopentyl propionate [Estrogen]
[1]
  effect on relaxin binding in the heart: had no effect on relaxin binding in the heart

## porcine relaxin
[2]; injection of up to 50 μg, anesthetized rats
  blood pressure: did not affect blood pressure
[2]; intracerebroventricular injection, urethane anesthetized rat
  arterial pressure: increase arterial pressure
[2]; intravenous injection, urethane anesthetized rats
  arterial pressure: increases arterial pressure
[2]; intravenous or intracerebroventricular injection, urethane anesthetized rat
  heart rate: increase heart rate
[3]
  healing of Raynaud's lesions: beneficial in healing Raynaud's lesions
Rat mesocaecum venules
  effect on venules and vasoconstriction: dilate venules and antagonized the vasoconstrictive effects of norepinephrine and promethazine

## C[C@]12CC[C@H]3[C@@H](CCC4=CC(=O)CC[C@@]43C)[C@@H]1CC[C@@H]2O [testosterone]
[1]
  effect on relaxin binding in the heart: did not cause any changes in relaxin binding in the heart

## CNCC(O)c1ccc(O)c(O)c1.O=C(O)C(O)C(O)C(=O)O (centres unmarked) [adrenaline, Adrenaline bitartrate, reference compound]
Rat isolated heart
  transient increases in coronary perfusion pressure: 5-10 mmHg
Rat isolated heart; intact preparations, 4.5 pMol, basal 83±4 mmHg
  left ventricular developed pressure (LVDP): 195±10 mmHg
Rat isolated heart; relaxin: single bolus administration of 830 pMol
  duration of chronotropic effect: short-lasting
